Measured values: patent publication US11642362B2, “Methods of inhibiting cell proliferation and METTL8 activity” (NATIONAL UNIVERSITY OF SINGAPORE, priority 2017, dated 2023)

Legend:
Mettl8 mRNA = test: Real-time PCR of Mettl8 mRNA in ESCs / E14 cells treated with STAT3 inhibitors; format: cell-based, mouse; details: for Mettl8 mRNA expression (real-time PCR): E14 cells treated for 6 hr; for Mettl8 mRNA (real-time PCR): ESCs treated with 10 μM STAT3 inhibitor for 1 hr
Method: To investigated how STAT3 crosstalk with other potential pathways in pluripotency of embryonic stem cells (“ESCs”), inventors tried to identify factors that were regulated by STAT3 using mouse ESCs treated with STAT3 inhibitors STA-21 and STATTIC. Real-time PCR was performed to screen for changes when embryonic stem cells (ESCs) were treated with STAT3 inhibitor 10 μM STA-21 and STATTIC for 1 hr. RNAs were extracted with TRIZOL followed by reverse transcription. Total RNAs were extracted from E14 cells treated with STA-21 and STATTIC for 6 hr and analyzed by real-time PCR. […] The data are shown as the mean±SD from three independent experiments (*p<0.05). The cell lysates from treated E14 cells were also analyzed by Western blot. Consistent with the mRNA expression, the protein levels of Mettl8 were reduced with presence of STA-21 and STATTIC (FIG. 5J). The value of each band was calculated from three independent replicates and indicates the relative expression level after normalizing to the loading control Actin.

Mettl8 [1] = test: Western blot of Mettl8 protein in E14 cells treated with STAT3 inhibitors; format: cell-based, mouse
Method: Total RNAs were extracted from E14 cells treated with STA-21 and STATTIC for 6 hr and analyzed by real-time PCR. […] The data are shown as the mean±SD from three independent experiments (*p<0.05). The cell lysates from treated E14 cells were also analyzed by Western blot. Consistent with the mRNA expression, the protein levels of Mettl8 were reduced with presence of STA-21 and STATTIC (FIG. 5J). The value of each band was calculated from three independent replicates and indicates the relative expression level after normalizing to the loading control Actin.

HCT116 cells [2] = test: Cell growth (colony formation) assay, crystal violet; format: cell-based, human; details: HCT116, 500 cells/well, 7 days, versus scramble shRNA / empty vector
Method: (§1) In the soft agar colony assay, HCT116 cells with Mettl8 wt or ΔSAM were seeded at 500 cells/well in 6-well plate in triplicate and after 2-week colonies grown up in soft agar was shown. Colonies with more than 50 cells were counted with Quantity One software. […] 7 days later, cells were fixed and stained with crystal violet. The images of plates were collected with ImageLab software.

Mettl8 [3] = test: STAT3 shRNA knockdown in E14 cells, Mettl8 mRNA and protein; format: cell-based, mouse; details: Luc shRNA as control
Method: Luc shRNA was used as control. Data in FIG. 5K are shown as the mean±SD from three independent experiments. The value of each band in FIG. 5L was calculated from three independent replicates and indicates the relative expression level after normalizing to the loading control Actin.

Mettl8 [4] = test: shRNA knockdown of Mettl8 in HCT116 (lentivirus, Western blotting); format: cell-based, human; details: HCT116, lentiviral pLKO1 shRNA, 72 h
Method: To study the functions of Mettl8, hairpin shRNA was ordered and cloned into pLKO1 vector by AgeI/EcoRI, with the following sequence:
The hairpin sequences in the shRNA were underlined. […]. Supernatant was harvested after 48 hours and cleared by filtration. Then viral solution was added to fresh HCT116 culture in the presence of 6 ug/ml polybrene. After 72 h, the cells were lysed and equal amount of lysate was resolved on SDS-PAGE for knock down efficiency by Western blotting with anti-Mettl8 and actin antibodies as indicated in FIG. 2.

ATM = test: Camptothecin treatment of HCT116 WT and METTL8 KO cells, ATM activation immunoblot; format: cell-based, human; details: 10 μM camptothecin 0-24 hr; Mettl8 knockout HCT116 cells compared with WT
Method: HCT116 WT and METTL8 KO cells were treated with 10 μM camptothecin for 0 h, 1 hr, 3 hr, 6 hr, 16 hr, and 24 hr. Equal amount of lysates were resolved on SDS-PAGE followed by immunoblotting with antibodies.

ATM, KAP1, Chk2, p53 = test: ATM inhibitor pre-treatment of Mettl8 mutant or knockout cells before irradiation (immunoblot); format: cell-based; details: Mettl8 mutant or knockout cells pre-treated with ATM inhibitor before irradiation
pS/TQ motif on Mettl8 = test: Flag IP and pS/TQ immunoblot of Flag-Mettl8 in HCT116 stable cells; format: cell-based, human
Source text: Since both ATM and p53 are tumor suppressors in response to DNA damage, inventors further explored the function of Mettl8 in DNA damage. […] Equal amount of lysates were subject to Flag immunoprecipitation (“IP”) with M-2 beads and washed extensively before being resolved on SDS-PAGE and followed by immunoblotting with an phosphorylation-specific antibody against pS/TQ motif (Cell signaling) and a Flag antibodu. The lysates were immunoblotted by anti-Flag, Actin, ATM pS1981, Chk2 pT68 and p53 p515 antibodies.
In this experiment, equal amount of lysate was immunopurified with M2 beads and probed for pS/TQ antibody, the lysate was checked for antibodies indicated in FIG. 7C.
Equal amounts of lysate were immunopurified with M2 beads and probed for pS/TQ antibody, the lysate was checked for antibodies indicated.

[5] = tested on: HCT116 wildtype and Mettl8 knockout cells; test: Cisplatin sensitivity MTS assay; format: cell-based, human; details: Mettl8 knockout versus wildtype HCT116 cells
Method: (§2) To further study the relationship between cisplatin and Mettl8, MTS and colony survival assays were performed. In the MTS assay, HCT116 wildtype and Mettl8 knockout cells were seed in 96 well at 1000 cell/well density and treated with different dose of cisplatin. In the colony survival assay, 500 cells per well of HCT116 control and Mettl8 knockout cells were seeded into 6-well plates in triplicate and subjected to different dosage of cisplatin treatment for 2 h.

Mettl8 [6] = test: Mettl8 expression after treatment with interstrand crosslinking agents; format: cell-based
[7] = tested on: HCT116 control and Mettl8 knockout cells; test: Cisplatin sensitivity colony survival assay; format: cell-based, human; details: Mettl8 knockout versus control HCT116 cells; cisplatin 2 h, grown a week
Method: as §2
Cells were grown in fresh media for a week and the survival cell colonies were fixed and stained with crystal violet. Colonies with more than 50 cells were counted. The result was presented in ±SEM of percentage of colonies survived compared to untreated samples. […] This effect is dependent on p53 for cisplatin induced apoptosis (data not shown). This difference in sensitivity could be exploited in clinical context that patients with functional p53 and low Mettl8 tumor may benefit more from cisplatin treatment instead of radiotherapy.

Mettl8 protein = Mettl8 protein level after cisplatin treatment (SDS-PAGE, immunoblotting); format: cell-based, human; details: 293T, HCT116 and HepG2 cells; cisplatin 0, 10, 30, 60, 100, 150 μM for 24 h
Method: To further study modulation of Mettl8 protein, 293T, HCT116, and HepG2 cells were treated with different dosage of cisplatin (0, 10, 30, 60, 100, and 150 μM) for 24 h before cell lysates were collected and subjected to SDS-PAGE followed by immunoblotting with Mettl8 and Hsp90 antibodies.

[8] = 3H-SAM binding assay with GST-Mettl8 proteins on beads, scintillation counting; design: species or system human; details: recombinant purified GST-Mettl8 wt and SAM mutant
Method: To test the ability of Mettl8 to bind SAM, equal amounts of GST, GST-Mettl8 WT and mutant proteins were conjugated on Glutathione sepharose 4B beads and incubated with ^3H-SAM for 30 min at 30° C. with empty beads control. After extensive washing, the beads were transferred to scintillation tubes and measured on liquid scintillation counter in triplicate.
(§3) As ATM is essential for cell checkpoint, the cell cycle profiles were studies in this experiment. The plasmid containing the cDNA of human Mettle8 SAM deletion mutant was constructed by PCR based mutagenesis method to delete the specific nucleotide sequence in the SAM domain as shown in FIG. 7A. After the plasmid was transfected into HCT116 wildtype cells, stable colonies of cell containing the plasmid were selected, which were called Mettl8 ΔSAM cells. The Mettle8 ΔSAM variant cDNA was also transduced into human skin fibroblast as shown in FIG. 7N by a lentivirus based method. These HCT116 stable cells were examined in cell cycle analysis (FIG. 9A) and soft agar colony assay (FIG. 9B).

HCT116 stable cells = test: Cell cycle profiling by FACS of HCT116 stable cells; format: cell-based, human; details: un-stressed conditions, versus empty vector and wild-type Mettl8
Source text: as §3
In addition, HCT116 stable cells with Mettl8 variant were fixed with 70% ethanol and stained with pI followed by cell cycle profiling on FACS and data were analysed with FlowJo software.

HCT116 cells [9] = test: Soft agar colony assay; format: cell-based, human; details: HCT116 stable cells, 500 cells/well, 2 weeks, compared to empty vector
Method: as §1

## CC1CC(=O)c2c(ccc3c2C(=O)c2cccc(O)c2C3=O)C1 (stereo not shown) [STA-21, 8-hydroxy-3-methyl-3,4-dihydrotetraphene-1,7,12(2H)-trione]
Mettl8 mRNA
  Mettl8 mRNA expression (real-time PCR): inhibited
  Mettl8 mRNA (real-time PCR): downregulated
Mettl8 [1]
  Mettl8 protein levels (Western blot): reduced

## Mettl8 shRNA2: shRNA sequence GCGAGAGAATCATCATGGGAT, SEQ ID No: 3
HCT116 cells [2]
  colony formation: significantly reduced the colony formation

## STAT3 shRNA: shRNA sequence TTTGTGCTTAGGATGGCCC, SEQ ID No: 7; full sequence SEQ ID No: 8 (GATCCCCGGGCCATCCTAAGCACAAATTCAAGAGATTTGTGCTTAGGATGGCCCTTTTTA)
Mettl8 [3]
  Mettl8 mRNA: downregulation
  Mettl8 protein: downregulation

## shRNA: hairpin shRNA against Mettl8 cloned into pLKO1, SEQ ID NO: 15; hairpin matches M8 shRNA1 GTTGAGGGAATTTCCTGAAAT (CCGGGTTGAGGGAATTTCCTGAAATCTCGAGATTTCAGGAAATTCCCTCAACTTTTTTG)
Mettl8 [4]
  Mettl8 expression (knock down efficiency, Western blotting): can knock down the expression of Mettl8

## CC[C@@]1(O)C(=O)OCc2c1cc1n(c2=O)Cc2cc3ccccc3nc2-1 [camptothecin]
ATM
  ATM activation: caused hyperactivation of ATM

## O=[N+]([O-])c1ccc2c(c1)S(=O)(=O)C=C2 [STATTIC, 6-Nitrobenzo[b]thiophene 1,1-dioxide]
Mettl8 mRNA
  Mettl8 mRNA expression (real-time PCR): inhibited
  Mettl8 mRNA (real-time PCR): downregulated
Mettl8 [1]
  Mettl8 protein levels (Western blot): reduced

## O=c1cc(-c2cccc3c2Sc2ccccc2S3)oc(N2CCOCC2)c1 [Ku55933]
ATM, KAP1, Chk2, p53
  hyper activation of ATM, KAP1, Chk2, p53 by irradiation: either reverted or eliminated the hyper activation
pS/TQ motif on Mettl8; 1 μM Ku55933 pretreatment 1 hour, 10 Gy, harvested 1 h later, doses 0.1, 1, 5 μM tested
  prevention of Mettl8 phosphorylation by IR: sufficient to prevent the phosphorylation of Mettl8
pS/TQ motif on Mettl8; HCT116 Flag-Mettl8 cells pretreated 1 hour with inhibitor (AZD7762 0.5 μM), then 10 Gy
  irradiation-induced phosphorylation at the pS/TQ motif of Flag-Mettl8: reduced the phosphorylation

## N.N.[Cl][Pt][Cl] [cisplatin]
[5]
  sensitivity to cisplatin treatment (MTS assay): more sensitive
Mettl8 [6]
  Mettl8 expression at transcriptional level: downregulated at transcriptional level
[7]
  sensitivity to cisplatin treatment (colony survival assay): more sensitive
Mettl8 protein
  Mettl8 protein level: dramatically reduced

## CO[C@@]12[C@H](COC(N)=O)C3=C(C(=O)C(C)=C(N)C3=O)N1C[C@@H]1N[C@@H]12 [mitomycin C]
Mettl8 [6]
  Mettl8 expression at transcriptional level: downregulated at transcriptional level

B1: Mettl8 ASAM variant: human Mettl8 variant with SAM domain deletion (aa 200-208), SEQ ID No. 18; competes with endogenous Mettl8 (protein)
chain: MNMIWRNSISCLRLGKVPHRYQSGYHPVAPLGSRILTDPAKVFEHNMWDHMQWSKEEEAAARKKVKENSAVRVLLEEQVKYEREASKYWDTFYKIHKNKFFKDRNWLLREFPEILPVDQKPEEKARESSWDHVKTSATNRFSRMHCPTVPDEKNHYEKSSGSSEGQSKTESDFSNLDSEKHKKGPMETGLFPGSNATFRNSVFPILNTLENSPESFLYCCDFASGAVELVKSHSSYRATQCFAFVHDVCDDGLPYPFPDGILDVILLVFVLSSIHPDRMQGVVNRLSKLLKPGGMLLFRDYGRYDKTQLRFKKGHCLSENFYVRGDGTRAYFFTKGEVHSMFCKASLDEKQNLVDRRLQVNRKKQVKMHRVWIQGKFQKPLHQTQNSSNMVSTLLSQD
[8]
  binding of SAM: lost the ability to bind the SAM donor molecule
HCT116 stable cells
  cell cycle profile: more accumulation of G2/M populations
HCT116 cells [9]
  soft agar colony numbers: much reduced colony numbers
